Measurements as given in ChEMBL document CHEMBL1201862, “PubChem BioAssay data set” (2004).
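These data come from cells grown in 96-well plates and exposed to compound for 48 hours at five concentrations. GI50 is the concentration that inhibits growth by half.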 Calls of active or inactive are those of the source. Cut-off read from the data, not from the text of the source: active = GI50 up to about 1.1 µM and inactive = higher.

Assays:
Assay in all cases: NCI tumour cell line growth inhibition, 48 h
[1] = test system: PC-3
[2] = test system: T47D
[3] = test system: COLO 205
[4] = test system: OVCAR-3
[5] = test system: U-251
[6] = test system: SK-MEL-28
[7] = test system: HT-29
[8] = test system: M14
[9] = test system: HCT-15
[10] = test system: OVCAR-4
[11] = test system: Malme-3M
[12] = test system: NCI-H23
[13] = test system: SK-OV-3
[14] = test system: OVCAR-8
[15] = test system: ACHN
[16] = test system: UACC-62
[17] = test system: RPMI-8226
[18] = test system: A549
[19] = test system: A498
[20] = test system: SF-268
[21] = test system: SK-MEL-2
[22] = test system: K562
[23] = test system: SN12C
[24] = test system: CCRF-CEM
[25] = test system: MDA-MB-231
[26] = test system: HCT-116
[27] = test system: KM12
[28] = test system: OVCAR-5
[29] = test system: NCI/ADR-RES
[30] = test system: MDA-N
[31] = test system: MOLT-4
[32] = test system: 786-0
[33] = test system: MCF7
[34] = test system: BT-549
[35] = test system: CAKI-1
[36] = test system: MDA-MB-435
[37] = test system: UO-31
[38] = test system: UACC-257
[39] = test system: HOP-62
[40] = test system: SNB-75
[41] = test system: HCC 2998
[42] = test system: NCI-H226
[43] = test system: SNB-19
[44] = test system: Hs-578T
[45] = test system: DU-145
[46] = test system: SF-295
[47] = test system: SW-620
[48] = test system: NCI-H460
[49] = test system: EKVX
[50] = test system: SF-539
[51] = test system: SR
[52] = test system: HL-60
[53] = test system: SK-MEL-5
[54] = test system: HOP-92
[55] = test system: TK-10
[56] = test system: RXF 393
[57] = test system: NCI-H522
[58] = test system: LOX IMVI

`COc1cccc(/C=N/n2c(-c3ccccc3)n[nH]c2=O)c1` was tested, and the GI50 [1] was > 100 µM (inactive), the GI50 [2] was 27.5 µM (inactive) and the GI50 [3] was > 100 µM (inactive). The GI50 [4] was > 100 µM (inactive), the GI50 [5] was 34.5 µM (inactive) and the GI50 [6] was > 100 µM (inactive). The GI50 [7] was > 100 µM (inactive), the GI50 [8] was > 100 µM (inactive) and the GI50 [9] was > 100 µM. For the same molecule, the GI50 [10] was > 100 µM (inactive), the GI50 [11] was > 100 µM (inactive) and the GI50 [12] was 27.3 µM (inactive). For the same molecule, the GI50 [13] was 44.2 µM (inactive), the GI50 [14] was 29.8 µM (inactive) and the GI50 [15] was > 100 µM (inactive). For the same molecule, the GI50 [16] was 72.4 µM (inactive), the GI50 [17] was > 100 µM (inactive) and the GI50 [18] was 91.2 µM (inactive). For the same molecule, the GI50 [19] was 24.4 µM (inactive), the GI50 [20] was 17.5 µM (inactive) and the GI50 [21] was 34.6 µM (inactive). For the same molecule, the GI50 [22] was > 100 µM (inactive), the GI50 [23] was 87.7 µM (inactive) and the GI50 [24] was > 100 µM (inactive). For the same molecule, the GI50 [25] was 29.5 µM (inactive), the GI50 [26] was 28.2 µM (inactive) and the GI50 [27] was 85.5 µM (inactive). The GI50 [28] was > 100 µM (inactive), the GI50 [29] was 39.4 µM (inactive) and the GI50 [30] was > 100 µM (inactive). For the same molecule, the GI50 [31] was > 100 µM (inactive), the GI50 [32] was 40.8 µM (inactive) and the GI50 [33] was 75.5 µM (inactive). For the same molecule, the GI50 [34] was 26.9 µM (inactive), the GI50 [35] was 53 µM (inactive) and the GI50 [36] was > 100 µM (inactive). For the same molecule, the GI50 [37] was > 100 µM (inactive), the GI50 [38] was 42.6 µM (inactive) and the GI50 [39] was 25.9 µM (inactive). For the same molecule, the GI50 [40] was 34.3 µM (inactive), the GI50 [41] was > 100 µM (inactive) and the GI50 [42] was 43.7 µM (inactive). The GI50 [43] was 35.7 µM (inactive), the GI50 [44] was 22.7 µM (inactive) and the GI50 [45] was 49.5 µM (inactive). For the same molecule, the GI50 [46] was 21.2 µM (inactive), the GI50 [47] was > 100 µM (inactive) and the GI50 [48] was 42.2 µM (inactive). For the same molecule, the GI50 [49] was > 100 µM (inactive) and the GI50 [50] was 28.1 µM (inactive).
In the case of `Cn1nc(S(N)(=O)=O)s/c1=N/C(N)=S`, the GI50 [51] is reported as > 100 µM (inactive), the GI50 [2] is reported as > 100 µM (inactive) and the GI50 [3] is reported as > 100 µM (inactive). The GI50 [4] was > 100 µM (inactive), the GI50 [5] was > 100 µM (inactive) and the GI50 [6] was > 100 µM (inactive). The GI50 [7] was > 100 µM (inactive), the GI50 [8] was > 100 µM (inactive) and the GI50 [9] was > 100 µM. The GI50 [10] was > 100 µM (inactive), the GI50 [52] was > 100 µM (inactive) and the GI50 [11] was > 100 µM (inactive). For the same molecule, the GI50 [12] was > 100 µM (inactive), the GI50 [13] was > 100 µM (inactive) and the GI50 [14] was > 100 µM (inactive). The GI50 [15] was > 100 µM (inactive), the GI50 [16] was > 100 µM (inactive) and the GI50 [17] was > 100 µM (inactive). For the same molecule, the GI50 [18] was > 100 µM (inactive), the GI50 [19] was > 100 µM (inactive) and the GI50 [20] was > 100 µM (inactive). For the same molecule, the GI50 [53] was > 100 µM (inactive), the GI50 [21] was > 100 µM (inactive) and the GI50 [22] was > 100 µM (inactive). The GI50 [23] was > 100 µM (inactive), the GI50 [24] was > 100 µM (inactive) and the GI50 [25] was > 100 µM (inactive). The GI50 [26] was > 100 µM (inactive), the GI50 [27] was > 100 µM (inactive) and the GI50 [28] was > 100 µM (inactive). The GI50 [29] was > 100 µM (inactive), the GI50 [30] was > 100 µM (inactive) and the GI50 [31] was > 100 µM (inactive). The GI50 [32] was > 100 µM (inactive), the GI50 [33] was > 100 µM (inactive) and the GI50 [34] was > 100 µM (inactive). The GI50 [35] was > 100 µM (inactive), the GI50 [54] was > 100 µM (inactive) and the GI50 [36] was > 100 µM (inactive). The GI50 [37] was > 100 µM (inactive), the GI50 [55] was > 100 µM (inactive) and the GI50 [38] was > 100 µM (inactive). The GI50 [39] was > 100 µM (inactive), the GI50 [41] was > 100 µM (inactive) and the GI50 [42] was > 100 µM (inactive). For the same molecule, the GI50 [43] was > 100 µM (inactive), the GI50 [44] was > 100 µM (inactive) and the GI50 [45] was > 100 µM (inactive). The GI50 [46] was > 100 µM (inactive), the GI50 [56] was > 100 µM (inactive) and the GI50 [57] was > 100 µM (inactive). The GI50 [58] was > 100 µM (inactive), the GI50 [47] was > 100 µM (inactive) and the GI50 [48] was > 100 µM (inactive). For the same molecule, the GI50 [49] was > 100 µM (inactive) and the GI50 [50] was > 100 µM (inactive).
